# Results as given in ChEMBL document CHEMBL3886358, “Quinolyl-containing hydroxamic acid compound and preparation method thereof, and pharmaceutical composition containing this compound and use thereof” (2015).
# How the values were obtained:
# Histone deacetylase 11 = target: T1, Histone deacetylase 11 (Homo sapiens, UniProt Q96DB2); assay: (§1) Inhibition Assay: The inhibitions of activities of HDAC enzymes by the compounds N1'-[3-fluoro-4-[[7-[4-(hydroxyamino)-4-oxobutoxy]-6-methoxy-4-quinolyl]oxy]phenyl]-N1-(4-fluoro phenyl)cyclopropane-1,1-dicarboxamide prepared in Example 9 and N1'-[3-fluoro-4-[[7-[6-(hydroxyamino)-6-oxohexyloxy]-6-methoxy-4-quinolyl]oxy]phenyl]-N1-(4-fluo rophenyl)cyclopropane-1,1-dicarboxamide prepared in Example 13 were measured by Reaction Biology Corporation (Reaction Biology Corp., One Great Valley Parkway, Suite 2, Malvern, PA 19355, USA . http://www.reactionbiology.com/pages/hdac.htm). The HDAC enzymes tested include the following 11 HDAC isoforms: HDAC1, HDAC2, HDAC3, HDAC4, HDAC5, HDAC6, HDAC7, HDAC8, HDAC9, HDAC10 and HDAC11.Specific steps were as follows: The compound of the present invention was dissolved in dimethyl sulfoxide (DMSO) to make a stock solution of 10 mM. The stock solution was diluted in 4-fold series starting from 10 mM to prepare 10 different dosages.
# T1 sequence (Q96DB2 whole entry): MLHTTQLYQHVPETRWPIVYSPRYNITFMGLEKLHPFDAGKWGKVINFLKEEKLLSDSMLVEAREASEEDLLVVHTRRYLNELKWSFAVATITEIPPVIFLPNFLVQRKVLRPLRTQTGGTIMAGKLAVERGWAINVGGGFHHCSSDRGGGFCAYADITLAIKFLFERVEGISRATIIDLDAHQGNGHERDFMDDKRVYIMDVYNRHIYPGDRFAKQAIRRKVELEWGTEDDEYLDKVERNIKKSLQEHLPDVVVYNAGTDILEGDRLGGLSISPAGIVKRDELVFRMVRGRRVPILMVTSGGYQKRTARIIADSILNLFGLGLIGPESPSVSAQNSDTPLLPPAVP
# Histone deacetylase 7 = target: T2, Histone deacetylase 7 (Homo sapiens, UniProt Q8WUI4); assay: as §1
# T2 sequence (Q8WUI4 whole entry): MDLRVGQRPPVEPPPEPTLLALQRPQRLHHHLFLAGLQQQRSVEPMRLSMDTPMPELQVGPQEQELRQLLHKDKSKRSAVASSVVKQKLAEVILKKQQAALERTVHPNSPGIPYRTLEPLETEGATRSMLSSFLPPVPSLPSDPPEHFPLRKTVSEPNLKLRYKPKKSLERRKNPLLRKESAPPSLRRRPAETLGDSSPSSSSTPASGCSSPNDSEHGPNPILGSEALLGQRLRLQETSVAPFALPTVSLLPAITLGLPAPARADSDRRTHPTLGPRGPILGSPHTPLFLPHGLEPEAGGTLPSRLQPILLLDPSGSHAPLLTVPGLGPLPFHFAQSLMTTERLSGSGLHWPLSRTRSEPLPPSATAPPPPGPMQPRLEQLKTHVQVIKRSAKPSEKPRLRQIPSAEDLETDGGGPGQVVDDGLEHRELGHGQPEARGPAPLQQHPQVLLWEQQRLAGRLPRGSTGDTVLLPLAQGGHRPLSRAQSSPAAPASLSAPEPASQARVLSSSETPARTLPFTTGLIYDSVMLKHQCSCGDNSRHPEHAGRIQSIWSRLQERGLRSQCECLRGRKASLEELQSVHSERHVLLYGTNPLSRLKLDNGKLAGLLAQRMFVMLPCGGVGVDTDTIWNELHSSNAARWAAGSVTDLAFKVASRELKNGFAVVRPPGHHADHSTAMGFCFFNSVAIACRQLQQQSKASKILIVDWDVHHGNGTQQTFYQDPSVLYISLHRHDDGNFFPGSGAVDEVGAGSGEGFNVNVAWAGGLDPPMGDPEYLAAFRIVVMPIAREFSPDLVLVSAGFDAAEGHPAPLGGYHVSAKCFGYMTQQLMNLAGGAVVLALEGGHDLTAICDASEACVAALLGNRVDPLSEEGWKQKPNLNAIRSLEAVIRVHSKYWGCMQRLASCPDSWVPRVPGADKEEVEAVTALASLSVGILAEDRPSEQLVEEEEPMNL
# [1] = target: Hepatocyte growth factor receptor (Homo sapiens, UniProt P08581); assay: (§2) Sci. USA 1988, 85(23), 9312). Specific steps were as follows: The compound of the present invention was dissolved in dimethyl sulfoxide (DMSO) to make a stock solution of 2 mM, then the stock solution was diluted with DMSO following a 7 half-log series to concentrations ranging from 2 uM to 600 pM.; type: cell-based
# [2] = target: Proto-oncogene tyrosine-protein kinase Src (Homo sapiens, UniProt P12931); assay: as §2; type: cell-based
# [3] = target: Proto-oncogene tyrosine-protein kinase receptor Ret (Homo sapiens, UniProt P07949); assay: as §2; type: cell-based
# [4] = target: T3, Tyrosine-protein kinase receptor UFO (Homo sapiens, UniProt P30530); assay: as §2; type: cell-based
# T3 sequence (P30530 whole entry): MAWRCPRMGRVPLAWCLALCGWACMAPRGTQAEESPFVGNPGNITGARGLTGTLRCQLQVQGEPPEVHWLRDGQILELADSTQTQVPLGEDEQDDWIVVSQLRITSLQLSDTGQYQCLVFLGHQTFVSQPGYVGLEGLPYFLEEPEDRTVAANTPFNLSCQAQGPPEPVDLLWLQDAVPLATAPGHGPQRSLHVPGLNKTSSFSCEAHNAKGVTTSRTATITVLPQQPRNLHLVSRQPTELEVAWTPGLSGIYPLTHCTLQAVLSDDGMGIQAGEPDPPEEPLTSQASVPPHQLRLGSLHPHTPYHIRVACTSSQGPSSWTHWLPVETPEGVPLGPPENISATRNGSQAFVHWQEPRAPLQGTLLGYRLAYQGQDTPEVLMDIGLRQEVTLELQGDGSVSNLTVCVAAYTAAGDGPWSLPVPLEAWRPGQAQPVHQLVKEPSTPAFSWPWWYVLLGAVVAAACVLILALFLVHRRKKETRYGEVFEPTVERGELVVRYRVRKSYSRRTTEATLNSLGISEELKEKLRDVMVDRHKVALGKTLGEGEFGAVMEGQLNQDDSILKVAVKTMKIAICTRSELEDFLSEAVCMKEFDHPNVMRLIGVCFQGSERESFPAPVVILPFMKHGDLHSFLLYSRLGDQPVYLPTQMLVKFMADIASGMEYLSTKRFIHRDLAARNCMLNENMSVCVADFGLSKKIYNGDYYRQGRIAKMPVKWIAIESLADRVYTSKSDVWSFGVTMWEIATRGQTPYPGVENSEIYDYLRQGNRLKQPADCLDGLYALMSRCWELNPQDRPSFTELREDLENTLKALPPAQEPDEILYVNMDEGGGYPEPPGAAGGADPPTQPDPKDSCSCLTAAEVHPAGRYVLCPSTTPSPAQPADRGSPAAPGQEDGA
# Proto-oncogene tyrosine-protein kinase receptor Ret, sequence (P07949 whole entry): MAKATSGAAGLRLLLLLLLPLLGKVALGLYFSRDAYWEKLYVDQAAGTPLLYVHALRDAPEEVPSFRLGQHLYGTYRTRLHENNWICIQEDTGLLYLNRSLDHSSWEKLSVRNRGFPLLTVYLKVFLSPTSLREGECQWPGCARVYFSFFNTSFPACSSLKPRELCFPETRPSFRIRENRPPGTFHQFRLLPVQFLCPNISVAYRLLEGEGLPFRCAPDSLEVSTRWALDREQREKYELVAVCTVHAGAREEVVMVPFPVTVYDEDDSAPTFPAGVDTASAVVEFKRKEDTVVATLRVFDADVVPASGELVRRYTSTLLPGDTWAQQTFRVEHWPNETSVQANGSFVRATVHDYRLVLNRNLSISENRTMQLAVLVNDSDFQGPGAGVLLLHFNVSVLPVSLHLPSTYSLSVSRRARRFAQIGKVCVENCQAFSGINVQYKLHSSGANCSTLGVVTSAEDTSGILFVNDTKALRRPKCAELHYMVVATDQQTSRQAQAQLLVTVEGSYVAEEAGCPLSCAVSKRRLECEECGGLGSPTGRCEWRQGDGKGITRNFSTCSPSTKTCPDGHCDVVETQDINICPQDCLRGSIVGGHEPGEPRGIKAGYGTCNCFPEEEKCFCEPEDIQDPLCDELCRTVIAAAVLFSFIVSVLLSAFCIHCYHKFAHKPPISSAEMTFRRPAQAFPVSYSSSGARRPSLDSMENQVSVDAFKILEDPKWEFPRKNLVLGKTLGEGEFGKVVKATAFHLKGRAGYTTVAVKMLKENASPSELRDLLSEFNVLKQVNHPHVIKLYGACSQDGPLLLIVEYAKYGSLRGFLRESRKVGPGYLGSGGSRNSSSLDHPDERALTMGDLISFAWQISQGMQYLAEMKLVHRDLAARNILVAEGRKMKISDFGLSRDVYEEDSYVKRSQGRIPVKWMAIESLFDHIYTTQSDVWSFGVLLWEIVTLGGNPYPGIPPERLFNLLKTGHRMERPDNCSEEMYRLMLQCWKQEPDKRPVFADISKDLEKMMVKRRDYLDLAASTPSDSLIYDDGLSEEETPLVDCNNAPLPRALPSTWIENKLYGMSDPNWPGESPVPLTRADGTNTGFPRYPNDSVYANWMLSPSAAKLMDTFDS
# Proto-oncogene tyrosine-protein kinase Src, sequence (P12931 2-536 limits assumed): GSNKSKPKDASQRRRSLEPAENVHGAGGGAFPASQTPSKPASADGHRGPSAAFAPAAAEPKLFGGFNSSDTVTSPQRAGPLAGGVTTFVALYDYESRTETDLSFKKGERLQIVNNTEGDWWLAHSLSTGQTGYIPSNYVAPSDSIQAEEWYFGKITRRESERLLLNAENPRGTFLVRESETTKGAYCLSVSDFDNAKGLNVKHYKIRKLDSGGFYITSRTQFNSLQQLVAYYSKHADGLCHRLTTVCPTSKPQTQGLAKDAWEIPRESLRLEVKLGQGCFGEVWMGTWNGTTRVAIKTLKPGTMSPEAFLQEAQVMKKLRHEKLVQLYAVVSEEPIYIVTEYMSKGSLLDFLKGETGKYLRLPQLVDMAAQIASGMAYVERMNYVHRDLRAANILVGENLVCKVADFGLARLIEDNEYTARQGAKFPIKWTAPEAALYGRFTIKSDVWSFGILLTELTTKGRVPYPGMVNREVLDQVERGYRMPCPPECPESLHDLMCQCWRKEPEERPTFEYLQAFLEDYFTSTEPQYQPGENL
# Hepatocyte growth factor receptor, sequence (P08581 whole entry): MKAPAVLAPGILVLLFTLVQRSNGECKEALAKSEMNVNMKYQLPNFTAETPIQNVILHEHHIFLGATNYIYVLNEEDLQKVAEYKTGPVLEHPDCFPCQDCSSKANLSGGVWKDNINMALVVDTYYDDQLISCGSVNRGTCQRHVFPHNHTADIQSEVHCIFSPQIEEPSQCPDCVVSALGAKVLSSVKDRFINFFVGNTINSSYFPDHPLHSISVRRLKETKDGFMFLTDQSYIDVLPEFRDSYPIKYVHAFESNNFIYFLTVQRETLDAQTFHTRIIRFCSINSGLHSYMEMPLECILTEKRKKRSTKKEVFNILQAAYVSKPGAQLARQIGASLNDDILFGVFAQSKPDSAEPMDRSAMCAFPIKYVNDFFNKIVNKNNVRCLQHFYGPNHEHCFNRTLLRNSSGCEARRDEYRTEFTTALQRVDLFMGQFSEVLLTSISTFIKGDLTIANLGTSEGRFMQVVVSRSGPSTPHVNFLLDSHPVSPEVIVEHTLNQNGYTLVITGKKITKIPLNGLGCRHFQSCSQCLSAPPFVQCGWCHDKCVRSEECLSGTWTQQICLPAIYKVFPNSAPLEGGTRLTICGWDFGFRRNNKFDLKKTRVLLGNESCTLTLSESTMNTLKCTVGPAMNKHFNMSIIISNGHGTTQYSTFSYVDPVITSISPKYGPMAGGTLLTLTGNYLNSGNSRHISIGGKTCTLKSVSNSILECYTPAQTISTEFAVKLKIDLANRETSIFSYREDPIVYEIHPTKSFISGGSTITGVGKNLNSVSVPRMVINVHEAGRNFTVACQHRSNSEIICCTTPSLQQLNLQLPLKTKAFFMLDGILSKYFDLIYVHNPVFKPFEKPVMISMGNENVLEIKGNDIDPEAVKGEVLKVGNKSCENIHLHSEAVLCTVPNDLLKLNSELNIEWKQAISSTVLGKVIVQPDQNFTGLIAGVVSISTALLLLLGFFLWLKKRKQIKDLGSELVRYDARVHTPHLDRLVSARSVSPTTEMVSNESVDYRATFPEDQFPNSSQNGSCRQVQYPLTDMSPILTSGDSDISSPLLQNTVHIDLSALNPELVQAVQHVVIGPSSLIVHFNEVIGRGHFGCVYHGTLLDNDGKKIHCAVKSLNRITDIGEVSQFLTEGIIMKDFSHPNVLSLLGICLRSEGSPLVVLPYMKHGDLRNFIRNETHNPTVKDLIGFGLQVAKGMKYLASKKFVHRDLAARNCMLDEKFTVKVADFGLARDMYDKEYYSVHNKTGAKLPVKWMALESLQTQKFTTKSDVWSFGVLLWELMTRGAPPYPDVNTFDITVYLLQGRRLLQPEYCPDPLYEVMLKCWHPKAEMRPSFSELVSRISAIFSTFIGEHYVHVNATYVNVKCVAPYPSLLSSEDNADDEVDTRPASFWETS
IC50 [1] [µM],IC50 [2] [µM],IC50 [3] [µM],IC50 [4] [µM],SMILES,IC50 (Histone deacetylase 11) [µM],IC50 (Histone deacetylase 7) [µM]
,,,,COc1cc2c(Oc3ccc(NC(=O)C4(C(=O)Nc5ccc(F)cc5)CC4)cc3F)ccnc2cc1OCCCCCC(=O)NO,6.13,> 10
0.119,> 0.63,0.154,0.019,COc1cc2c(Oc3ccc(NC(=O)C4(C(=O)Nc5ccc(F)cc5)CC4)cc3F)ccnc2cc1OCCCC(=O)NO,> 10,> 10
